The target in assay [1] is T1, VEGFR2 (Homo sapiens, UniProt P35968). The following applies: relative IC50: reported IC50 toward VEGFR2 divided by next lowest reported IC50 to any gene target.
The next assay concerns VEGFR2 and FGFR1. The assay can be described thus: Selection of compounds that selectively inhibit both VEGFR2 and FGFR1 (average relative IC50). In kind it is biochemical. The following applies: average of VEGFR2 and FGFR1 relative IC50.
For assay [2], the target named is T1, VEGFR2. The following applies: reported IC50 to VEGFR2, read-out: VEGFR2 IC50_μM, cited from earlier work.
For another assay, the system named is any gene target. The following applies: cited from earlier work.
Setting [3] is: Table 3, selective inhibitors of VEGFR2.
Setting [4] is: lowest reported IC50 to any gene target, read-out: min IC50.
The mark [5] stands for this setting: next lowest IC50 value to any gene target, Table 3, read-out: Min IC50_μM.
The mark [6] stands for this setting: next lowest IC50 value to any gene target, read-out: Min IC50_μM.

Where two headings read alike, the source gives them in different places.

T1 sequence (P35968 20-1356, species assumed): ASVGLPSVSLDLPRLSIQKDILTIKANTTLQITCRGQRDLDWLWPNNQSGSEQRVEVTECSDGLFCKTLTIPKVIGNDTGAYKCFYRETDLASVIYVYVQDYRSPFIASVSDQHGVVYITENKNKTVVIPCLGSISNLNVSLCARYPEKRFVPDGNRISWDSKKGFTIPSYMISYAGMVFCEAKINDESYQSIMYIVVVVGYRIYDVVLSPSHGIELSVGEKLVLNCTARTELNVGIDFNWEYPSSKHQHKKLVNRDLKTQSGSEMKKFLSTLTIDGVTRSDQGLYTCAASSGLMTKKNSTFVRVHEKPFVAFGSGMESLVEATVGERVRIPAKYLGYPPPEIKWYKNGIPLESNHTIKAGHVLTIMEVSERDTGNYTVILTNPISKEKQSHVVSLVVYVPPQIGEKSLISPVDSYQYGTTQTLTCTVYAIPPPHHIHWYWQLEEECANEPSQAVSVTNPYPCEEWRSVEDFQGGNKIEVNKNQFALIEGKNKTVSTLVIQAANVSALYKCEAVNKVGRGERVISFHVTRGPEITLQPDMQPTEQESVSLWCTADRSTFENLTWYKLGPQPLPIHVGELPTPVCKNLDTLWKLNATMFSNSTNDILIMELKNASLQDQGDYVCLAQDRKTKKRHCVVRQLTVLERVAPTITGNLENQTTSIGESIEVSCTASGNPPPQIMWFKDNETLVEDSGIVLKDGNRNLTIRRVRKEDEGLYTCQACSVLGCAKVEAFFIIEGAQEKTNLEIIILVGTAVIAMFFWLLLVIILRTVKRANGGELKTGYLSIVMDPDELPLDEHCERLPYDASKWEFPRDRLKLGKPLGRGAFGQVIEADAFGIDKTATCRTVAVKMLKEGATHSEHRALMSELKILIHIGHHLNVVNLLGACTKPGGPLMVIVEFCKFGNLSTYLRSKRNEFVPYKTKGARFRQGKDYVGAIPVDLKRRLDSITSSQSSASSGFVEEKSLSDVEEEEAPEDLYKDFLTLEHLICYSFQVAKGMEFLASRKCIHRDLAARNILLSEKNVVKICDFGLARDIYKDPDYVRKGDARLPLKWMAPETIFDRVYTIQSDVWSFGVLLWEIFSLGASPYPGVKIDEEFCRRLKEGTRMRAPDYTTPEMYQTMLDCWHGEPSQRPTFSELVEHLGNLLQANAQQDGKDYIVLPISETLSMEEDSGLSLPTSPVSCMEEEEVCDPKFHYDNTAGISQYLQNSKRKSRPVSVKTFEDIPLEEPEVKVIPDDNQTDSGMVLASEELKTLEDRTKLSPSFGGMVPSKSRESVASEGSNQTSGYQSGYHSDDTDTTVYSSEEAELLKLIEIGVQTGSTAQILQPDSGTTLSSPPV

As for `COC(=O)c1ccc2c(c1)NC(=O)/C2=C(\Nc1ccc(N(CCN(C)C)S(C)(=O)=O)cc1)c1ccccc1` [compound 135456078, Methyl (3Z)-3-[[4-[2-(dimethylamino)ethyl-methylsulfonylamino]anilino]-phenylmethylidene]-2-oxo-1H-indole-6-carboxylate], at VEGFR2 [1], the “VEGFR2, rIC50” value was found to be 2.3.

As to `COC(=O)c1ccc2c(c1)NC(=O)/C2=C(\Nc1ccc(N(CCCN(C)C)C(C)=O)cc1)c1ccccc1` [compound 135405065], the “VEGFR2, rIC50” value on VEGFR2 [1] is listed as 3.0.

For the compound `COC(=O)c1ccc2c(C(=Nc3ccc(C(=O)N(C)CCN(C)C)cc3)c3ccccc3)c(O)[nH]c2c1` [compound 135452890, Methyl 3-[N-[4-[2-(dimethylamino)ethyl-methylcarbamoyl]phenyl]-C-phenylcarbonimidoyl]-2-hydroxy-1H-indole-6-carboxylate], the “VEGFR2, rIC50” value on VEGFR2 [1] worked out at 2.2.

For `CCN1CCC(Nc2ccc3[nH]c(O)c(C(=C4N=c5ccccc5=N4)c4cc(F)cc(F)c4)c3c2)CC1` [compound 135546228, 3-[Benzimidazol-2-ylidene-(3,5-difluorophenyl)methyl]-5-[(1-ethylpiperidin-4-yl)amino]-1H-indol-2-ol], at VEGFR2 [1], the “VEGFR2, rIC50” value turned out to be 0.7.

Consider `COC(=O)c1ccc2c(c1)NC(=O)/C2=C(\Nc1ccc(N(CC(=O)N(C)C)C(C)=O)cc1)c1ccccc1` [compound 135456052, Methyl (3Z)-3-[[4-[acetyl-[2-(dimethylamino)-2-oxoethyl]amino]anilino]-phenylmethylidene]-2-oxo-1H-indole-6-carboxylate], for which the “VEGFR2, rIC50” value on VEGFR2 [1] came out at 1.3.

`Nc1c(C(=O)c2cc3ccccc3[nH]2)cnn1-c1ccc2nc[nH]c2c1` [compound 68005732, [5-Amino-1-(1H-benzimidazol-6-yl)-1H-pyrazol-4-yl]-1H-indol-2-ylMethanone]: the “VEGFR2, rIC50” value at VEGFR2 [1] worked out at 10.3.

In the case of `COc1cc(OC)cc(-c2cc3cnc(NCCCCN4CCOCC4)cc3nc2NC(=O)NC(C)(C)C)c1` [compound 5330129, 1,6-Naphthyridine 19, reference compound], in the assay on VEGFR2 and FGFR1, the “avg rIC50” value was 1.5.

With `COc1cc(OC)cc(-c2cc3cnc(NCCCCCO)cc3nc2NC(=O)NC(C)(C)C)c1` [compound 5330159, 1,6-Naphthyridine 77, reference compound], the “avg rIC50” value in the assay with VEGFR2 and FGFR1 turned out to be 1.5.

Take `COC(=O)c1ccc2c(c1)NC(=O)/C2=C(\Nc1ccc(N(CCN(C)C)C(C)=O)cc1)c1ccccc1` [compound 135528963, Methyl (3Z)-3-[[4-[acetyl-[2-(dimethylamino)ethyl]amino]anilino]-phenylmethylidene]-2-oxo-1H-indole-6-carboxylate]: the “VEGFR2, rIC50” value on VEGFR2 [1] is listed as 2.4.

Consider `CCN1CCC(Nc2ccc3[nH]c(O)c(C(=C4N=c5ccccc5=N4)c4ccc(C)cc4)c3c2)CC1` [compound 135507297, 3-[Benzimidazol-2-ylidene-(4-methylphenyl)methyl]-5-[(1-ethylpiperidin-4-yl)amino]-1H-indol-2-ol], for which the “VEGFR2, rIC50” value at VEGFR2 [1] stood at 1.6.

As for `COc1cc(OC)cc(-c2cc3cnc(NCCCN4CCN(C)CC4)nc3nc2NC(=O)NC(C)(C)C)c1` [compound 5330167, Pyrido[2,3-d]pyrimidine 103, reference compound], the “avg rIC50” value in the assay with VEGFR2 and FGFR1 is 2.3.

`COC(=O)c1ccc2c(c1)NC(=O)C2=C(Nc1ccc(CN(C)C)cc1)c1ccccc1` [compound 135522918, Methyl 3-[[4-[(dimethylamino)methyl]anilino]-phenylmethylidene]-2-oxo-1H-indole-6-carboxylate]: on VEGFR2 [1], the “VEGFR2, rIC50” value is recorded as 2.3.

Turning to `COc1cc(OC)cc(-c2cc3cnc(NCCCO)nc3nc2NC(=O)NC(C)(C)C)c1` [compound 5330169, Pyrido[2,3-d]pyrimidine 105, reference compound], the “avg rIC50” value with VEGFR2 and FGFR1 came out at 2.3.

In the case of `Nc1c(C(=O)c2cc3cc(CN4CCOCC4)ccc3[nH]2)cnn1-c1cc(O)ccc1Cl` [compound 134156584, [5-Amino-1-(2-chloro-5-hydroxyphenyl)pyrazol-4-yl]-[5-(morpholin-4-ylmethyl)-1H-indol-2-yl]methanone], the “VEGFR2, rIC50” value at VEGFR2 [1] amounted to 5.6.

With `CCNC(=O)Nc1nc2nc(NCCCCN(CC)CC)ncc2cc1-c1cc(OC)cc(OC)c1` [compound 5330168, Pyrido[2,3-d]pyrimidine 104, reference compound], the “avg rIC50” value in the assay on VEGFR2 and FGFR1 was found to be 3.4.

`CONC(=O)c1cc(Nc2ncnn3cc(-c4ncc(C)o4)c(C(C)C)c23)c(F)cc1F` [compound 10388612, 2,4-Difluoro-5-[5-isopropyl-6-(5-methyl-oxazol-2-yl)-pyrrolo[2,1-f][1,2,4]triazin-4-ylamino]-N-methoxy-benzamide, reference compound]: the “VEGFR2, rIC50” value at VEGFR2 [1] was determined as 1.0. Besides, the IC50 on VEGFR2 [2] (setting [3]) was 1.1 nM; in the assay with any gene target (setting [4]), 1 nM; in the assay on any gene target (setting [5]), 1.1 nM.

For `CCN1CCC(Nc2ccc3[nH]c(O)c(C(=C4N=c5ccccc5=N4)c4cccc(F)c4)c3c2)CC1` [compound 135488014, 3-[Benzimidazol-2-ylidene-(3-fluorophenyl)methyl]-5-[(1-ethylpiperidin-4-yl)amino]-1H-indol-2-ol], the “VEGFR2, rIC50” value on VEGFR2 [1] came out at 0.6.

With `CONC(=O)c1cc(Nc2ncnn3cc(-c4nc(C)no4)c(C(C)C)c23)c(F)cc1F` [compound 11419379, 2,4-Difluoro-5-[5-isopropyl-6-(3-methyl-[1,2,4]oxadiazol-5-yl)-pyrrolo[2,1-f][1,2,4]triazin-4-ylamino]-N-methoxy-benzamide, reference compound], the “VEGFR2, rIC50” value at VEGFR2 [1] came to 1.0. For the same compound, the IC50 at VEGFR2 [2] (setting [3]) is 6.8 nM; in the assay with any gene target (setting [4]) it was 7 nM; in the assay with any gene target (setting [5]), 6.8 nM.

For `CONC(=O)c1cc(Nc2ncnn3cc(-c4nnc(CC5CC5)o4)c(C(C)C)c23)c(F)cc1F` [compound 11155938, 5-[6-(5-Cyclopropylmethyl-[1,3,4]oxadiazol-2-yl)-5-isopropyl-pyrrolo[2,1-f][1,2,4]triazin-4-ylamino]-2,4-difluoro-N-methoxy-benzamide, reference compound], the “VEGFR2, rIC50” value on VEGFR2 [1] came out at 1.0. Besides, the IC50 at VEGFR2 [2] (setting [3]), in the assay with any gene target (setting [4]) and with any gene target (setting [5]) was 4 nM in each case.

On to `CONC(=O)c1cc(Nc2ncnn3cc(-c4nnc(C5CC5)o4)c(C(C)C)c23)c(F)cc1F` [compound 11465545, 5-[6-(5-Cyclopropyl-[1,3,4]oxadiazol-2-yl)-5-isopropyl-pyrrolo[2,1-f][1,2,4]triazin-4-ylamino]-2,4-difluoro-N-methoxy-benzamide, reference compound], for which, on VEGFR2 [1], the “VEGFR2, rIC50” value came to 1.0. Also, the results for the IC50 at VEGFR2 [2] (setting [3]), in the assay with any gene target (setting [4]) and in the assay on any gene target (setting [5]) were 3.6 nM, 4 nM and 3.6 nM, respectively.

With `CONC(=O)c1cc(Nc2ncnn3cc(NC(=O)OCC4CCCO4)c(C(C)C)c23)c(F)cc1F` (centres unmarked) [compound 11477626, [4-(2,4-Difluoro-5-methoxycarbamoyl-phenylamino)-5-isopropyl-pyrrolo[2,1-f][1,2,4]triazin-6-yl]-carbamic acid tetrahydro-furan-2-ylmethyl ester], the “VEGFR2, rIC50” value on VEGFR2 [1] worked out at 1.0.

Turning to `CCN1CCC(Nc2ccc3[nH]c(O)c(C(=C4N=c5ccccc5=N4)c4ccccc4)c3c2)CC1` [compound 135405015, 3-[Benzimidazol-2-ylidene(phenyl)methyl]-5-[(1-ethylpiperidin-4-yl)amino]-1H-indol-2-ol], the “VEGFR2, rIC50” value on VEGFR2 [1] is 2.0.

In the case of `Cc1nc2ccc(N(C)c3ccnc(Nc4cccc(S(N)(=O)=O)c4)n3)cc2n1C` [compound 24949704], the figures for the IC50 at VEGFR2 [2] and in the assay with any gene target (setting [6]) were 63 nM and 1700 nM, respectively.

Take `COc1cc2c(Nc3ccc(Cl)c(Cl)c3)ncnc2cc1OCc1csc(N2CCN(C)CC2)n1` [compound 57802910]: the IC50 on VEGFR2 [2] (setting [3]) and in the assay on any gene target (setting [5]) was 50 nM in each case.

In the case of `O=C(NCCc1ccc(O)c(Br)c1)/C(Cc1cc(Br)c(O)c(Oc2ccc(CCNC(=O)/C(Cc3cc(Br)c(O)c(-c4cc(C/C(=N\O)C(=O)NCCc5ccc(O)c(Br)c5)cc(Br)c4O)c3)=N/O)cc2Br)c1)=N/O` [compound 71524406], the IC50 on VEGFR2 [2] (setting [3]) and in the assay with any gene target (setting [5]) was 600 nM throughout.

Consider `O=C(CCCCCCNCc1cc(Oc2ccc(NC(=O)Nc3ccc(Cl)c(C(F)(F)F)c3)cc2)ccn1)NO` [compound 25072217], for which the IC50 on VEGFR2 [2] and with any gene target (setting [6]) was 100 nM throughout.

For `COc1cc(C2=C(c3cn(COC(C)C)c4ccccc34)CNC2=O)cc(OC)c1OC` [compound 24894996], the IC50 at VEGFR2 [2] is 5200 nM; in the assay on any gene target (setting [6]), 5300 nM.

Turning to `COc1cc2c(Nc3ccc(Cl)c(Cl)c3)ncnc2cc1OCC1CN(C(=O)c2cccnc2Cl)CCO1` (centres unmarked) [compound 57802694], the IC50 at VEGFR2 [2] and in the assay with any gene target (setting [6]) was 50 nM throughout.

On to `C[C@@H](Nc1ncnc2[nH]c(-c3ccc(OCCCC(=O)NO)cc3)cc12)c1ccccc1` [compound 24900506], for which the IC50 at VEGFR2 [2] and in the assay with any gene target (setting [6]) was 100 nM each time.

Take `C[C@@H](Nc1ncnc2[nH]c(-c3ccc(C(=O)NO)cc3)cc12)c1ccc(F)cc1` [compound 24900772]: the IC50 at VEGFR2 [2] (setting [3]) and in the assay on any gene target (setting [5]) was 100 nM throughout.

On to `C[C@@H](Nc1ncnc2[nH]c(-c3ccc(NC(=O)CCCC(=O)NO)cc3)cc12)c1ccccc1` [compound 24900574], for which the IC50 at VEGFR2 [2] and in the assay with any gene target (setting [6]) was 100 nM each time.

Consider `COc1cc2c(Nc3ccc(Cl)c(Cl)c3)ncnc2cc1OCC1CN(C(=NC#N)N2CCCCC2)CCO1` (centres unmarked) [compound 57802736], for which the IC50 at VEGFR2 [2] and in the assay with any gene target (setting [6]) was 50 nM in each case.

Consider `COc1cc2c(Nc3c(F)cc(Cl)cc3F)ncnc2cc1OCC1CCNCC1` [compound 5329050], for which the values for the IC50 at VEGFR2 [2] and in the assay with any gene target (setting [6]) were 40 nM and 100 nM, respectively.

Values taken from patent publication US20240156825A1, “USE OF SELECTIVE VEGFR2 AND FGFR1 INHIBITORS” (Fountain Therapeutics Inc., priority 2022, published 2024).
